pIC50: −log10 of the molar value. Where “and” joins values, the source holds several entries; their conditions need not be identical. Identical values can stand only once. Entries after “also recorded” stand apart in the source; their conditions may differ.
Assays:
[1] = test system: HIV-1 RT mutant resistance test vector M41L-T69SSA-T215Y-RTV; assay: Phenotypic susceptibility assay, site directed RTV M41L+T69SSA+T215Y; format: cell-based; conditions: for Average fold reduction in susceptibility: RTV with 41 + 69 + 215 (M41L, T69SSA, T215Y), 2 replicates; for effect on susceptibility (words): RTV with M41L+T69SSA+T215Y
Method: (§1) Resistance tests were carried out with resistance test vectors using two host cell types. Resistance test vector viral particles were produced by a first host cell (the resistance test vector host cell) that was prepared by transfecting a packaging host cell with the resistance test vector and the packaging expression vector. The resistance test vector viral particles were then used to infect a second host cell (the target host cell) in which the expression of the indicator gene is measured.
(§2) The resistance test vectors containing a functional luciferase gene cassette were constructed and host cells were transfected with the resistance test vector DNA. The resistant test vectors contained patient-derived reverse transcriptase and protease sequences that were either susceptible or resistant to the antiretroviral agents, such as nucleoside reverse transcriptase inhibitors, non-nucleoside reverse transcriptase inhibitors and protease inhibitors. The resistance test vector viral particles produced by transfecting the resistance test vector DNA into host cells, either in the presence or absence of protease inhibitors, were used to infect target host cells grown either in the absence of NRTI or NNRTI or In the presence of increasing concentrations of the drug. The amount of luciferase activIty produced in infected target host cells in the presence of drug was compared to the amount of luciferase produced in infected target host cells in the absence of drug. Drug resistance was measured as the amount of drug required to inhibit by 50% the luciferase activity detected in the absence of drug (Inhibitory concentration 50%, IC50). The IC50 values were determined by plotting percent drug inhibition vs. log 10 drug concentration.
(§3) Host cells were seeded in 10-cm-diameter dishes and were transfected several days after plating with resistance test vector plasmid DNA and the envelope expression vector. Transfections were performed using a calcium-phosphate precipitation procedure. The cell culture media containing the DNA precipitate was replaced with fresh medium, from one to 24 hours, after transfection. Cell culture media containing resistance test vector viral particles was harvested one to four days after transfection and was passed through a […] filter before being stored at −80° C. HIV capsid protein (p24) levels in the harvested cell culture media were determined by an EIA method as described by the manufacturer (SIAC; Frederick, Md.). Before infection, target cells (293 and 293/T) were plated in cell culture media. Control infections were performed using cell culture media from mock transfections (no DNA) or transfections containing the resistance test vector plasmid DNA without the envelope expression plasmid. One to three or more days after infectIon the media was removed and cell lysis buffer (Promega) was added to each well. Cell lysates were assayed for luciferase activity (FIG. 3). The inhibitory effect of the drug was determined using the following equation:
(§4) % luciferase inhibition=1−(RLUluc[drug]÷RLUluc)×100
(§5) where RLUluc [drug] is the relative light unit of luciferase activity in infected cells in the presence of drug and RLUluc is the Relative Light Unit of luciferase activity in infected cells in the absence of drug. IC50 values were obtained from the sigmoidal curves that were generated from the data by plotting the percent inhibition of luciferase activity vs. the log 10 drug concentration. The drug inhibition curves are shown in (FIG. 3).
(§6) Genotypic changes that are observed to correlate with changes in phenotypic patterns of drug susceptibility are evaluated by construction of resistance test vectors containing the specific mutation on a defined, wild-type (drug susceptible) genetic background. Mutations may be incorporated alone and/or in combination with other known drug resistance mutations that are thought to modulate the susceptibility of HIV to a certain drug or class of drugs. […]

[2] = test system: HIV-1 RT mutant resistance test vector 41 + 62 + 69 + 75M + 210 + 215; assay: Phenotypic susceptibility assay, site directed RTV 41 + 62 + 69 + 75M + 210 + 215; format: cell-based; conditions: RTV with 41 + 62 + 69 + 75M + 210 + 215; 1 replicate
Method: as §1, §2, §3, §4, §5, §6

HIV clinical isolates = conditions: cited from earlier work
[3] = test system: HIV with RT Lys65→Arg mutation; conditions: Lys65→Arg (K65R); cited from earlier work
[4] = test system: HIV with RT Thr69→Asp mutation; conditions: cited from earlier work
[5] = test system: HIV with RT Val75→Thr mutation; conditions: cited from earlier work
[6] = test system: HIV with multi-nucleoside resistance complex (A62V, V75I, F77L, Y116F and Q115M); conditions: cited from earlier work
[7] = test system: HIV-1 RT mutant resistance test vector V75I; assay: Phenotypic susceptibility assay, site directed RTV V75I; format: cell-based; conditions: RTV with V75I vs wild type RTV
Method: as §1
as §2, with “The amount of luciferase activIty produced in infected target host cells in the presence of drug was compared to the amount of luciferase produced in infected target host cells in the absence of drug. Drug resistance was measured as the amount of drug required to inhibit by 50% the luciferase activity detected in the absence of drug (Inhibitory concentration 50%, IC50).” left out
(§7) Host cells were seeded in 10-cm-diameter dishes and were transfected several days after plating with resistance test vector plasmid DNA and the envelope expression vector. […] HIV capsid protein (p24) levels in the harvested cell culture media were determined by an EIA method as described by the manufacturer (SIAC; Frederick, Md.). […] The inhibitory effect of the drug was determined using the following equation: […]
(§8) Genotypic changes that are observed to correlate with changes in phenotypic patterns of drug susceptibility are evaluated by construction of resistance test vectors containing the specific mutation on a defined, wild-type (drug susceptible) genetic background. […]

[8] = test system: resistance test vectors containing five (M41L, D67N, K70R, T215Y, K219Q) or six (M41L, D67N, K70R, L210W, T215Y, K219Q) AZT resistance associated mutations; assay: Phenotypic susceptibility assay, site directed RTVs with five or six AZT resistance associated mutations; format: cell-based, HIV-1
Method: as §1
(§9) The resistance test vectors containing a functional luciferase gene cassette were constructed and host cells were transfected with the resistance test vector DNA. […] The IC50 values were determined by plotting percent drug inhibition vs. log 10 drug concentration.
as §7

[9] = test system: HIV-1 RT mutant resistance test vector V75V; assay: Phenotypic susceptibility assay, site directed RTV V75V; format: cell-based; conditions: for effect on susceptibility (words): RTV with V75V
Method: as §1
as §2, with “The amount of luciferase activIty produced in infected target host cells in the presence of drug was compared to the amount of luciferase produced in infected target host cells in the absence of drug. Drug resistance was measured as the amount of drug required to inhibit by 50% the luciferase activity detected in the absence of drug (Inhibitory concentration 50%, IC50).” left out
as §7, §8

[10] = test system: HIV-1 RT mutant resistance test vector A62V+V75I; assay: Phenotypic susceptibility assay, site directed RTV A62V+V75I; format: cell-based; conditions: RTV with A62V+V75I
Method: as §1, §9, §7

[11] = test system: HIV-1 RT mutant resistance test vector T69SSA and V75I; assay: Phenotypic susceptibility assay, site directed RTV T69SSA+V75I; format: cell-based; conditions: V75I added onto the T69SSA background
Method: as §1, §9, §7

[12] = test system: HIV with multiple ZDV resistance mutations; conditions: read-out: IC50 (high-level resistance); cited from earlier work
[13] = test system: HIV isolates of 13 ZDV-naive patients; conditions: 13 ZDV-naive patients followed for 18 to 22 months on d4T; d4T maximum; ZDV five patients; ddI three subjects; cited from earlier work

For `Nc1ccn([C@H]2CC[C@@H](CO)O2)c(=O)n1` [ddC, zalcitabine], the “Average fold reduction in susceptibility” value [1] is given as 1.41 fold, the “Average fold reduction in susceptibility” value [2] is given as 2.09 fold and the “fold reduction in susceptibility for each ten-fold decrease in ZDV sensitivity” value (HIV clinical isolates) is given as “two-fold”. The “fold increase in IC50 / reduction in susceptibility” value [3] was “five-fold to ten-fold”, the “fold reduction in sensitivity” value [4] was “five-fold” and the “susceptibility” value [5] was “reduced susceptibility to both ddI and ddC”.

For `Nc1nc(NC2CC2)c2ncn([C@H]3C=C[C@@H](CO)C3)c2n1` [ABC, abacavir], the “Average fold reduction in susceptibility” value [1] is given as 9.69 fold, the “Average fold reduction in susceptibility” value [2] is given as 15.53 fold and the “fold reduction in susceptibility” value ([6]; A62V, V75I, F77L, Y116F and Q115M) is given as 17 fold.

For `O=c1[nH]cnc2c1ncn2[C@H]1CC[C@@H](CO)O1` [ddI, didanosine], the “Average fold reduction in susceptibility” value [1] is listed as 2.02 fold, the “Average fold reduction in susceptibility” value [2] is listed as 3.10 fold and the “fold reduction in susceptibility for each ten-fold decrease in ZDV sensitivity” value (HIV clinical isolates) is listed as 2.2 fold. For the same molecule, the “fold increase in IC50 / reduction in susceptibility” value [3] was “three-fold to five-fold” and the “susceptibility” value [5] was “reduced susceptibility to both ddI and ddC”.

In the case of `Cc1cn([C@H]2C[C@H](N=[N+]=[N-])[C@@H](CO)O2)c(=O)[nH]c1=O` [AZT, zidovudine], the “Average fold reduction in susceptibility” value [1] was 160 fold and 140 fold and 141.71 fold, the “effect on susceptibility (words)” value [1] was “significant decrease in both d4T and AZT susceptibility” and the “Average fold reduction in susceptibility” value [2] was >1000 fold. For the same molecule, the “effect on susceptibility (words)” value [7] was “increase in the susceptibility to AZT; also recorded: increased AZT susceptibility; also recorded: increased AZT susceptibility slightly”, the “effect on susceptibility (words)” value [8] was “reduced susceptibility to d4T and AZT” and the “effect on susceptibility (words)” value [9] was “increased AZT susceptibility slightly”. The “effect on susceptibility (words)” value [10] was “slight increases in susceptibility to AZT; also recorded: did not alter the reduced level of AZT susceptibility caused by the V75I mutation”, the “effect on susceptibility (words)” value [11] was “increased susceptibility to AZT” and the pIC50 [12] was < 6.00.

In the case of `Cc1cn([C@H]2C=C[C@@H](CO)O2)c(=O)[nH]c1=O` [d4T, stavudine], the “Average fold reduction in susceptibility” value [1] was 5 fold and 5.20 fold, the “effect on susceptibility (words)” value [1] was “significant decrease in both d4T and AZT susceptibility” and the “Average fold reduction in susceptibility” value [2] was 13.18 fold. For the same molecule, the “effect on susceptibility (words)” value [7] was “did not alter d4T susceptibility; also recorded: did not reduce d4T susceptibility; also recorded: had no affect on d4T susceptibility”, the “effect on susceptibility (words)” value ([7]; listed as d4t) was “no effect on d4t-susceptibility” and the “effect on susceptibility (words)” value [8] was “reduced susceptibility to d4T and AZT”. For the same molecule, the “effect on susceptibility (words)” value [9] was “did not reduce d4T susceptibility”, the “fold reduction in susceptibility” value ([9]; RTV with V75V vs control RTV) was “less than two-fold” and the “effect on susceptibility (words)” value [10] was “no differences in their susceptibility to d4T; also recorded: had no effect on d4T; also recorded: had no affect on d4T susceptibility”. For the same molecule, the “effect on susceptibility (words)” value [11] was “decreased susceptibility to d4T”, the “fold increase in IC50” value [5] was “seven-fold” and the “fold decrease in sensitivity” value [13] was ≤ 12 fold. The “cross-resistance of isolates with substitutions at codons 62, 75, 77, 116 and 115” value ([6]; patients on prolonged ZDV plus ddI or ddC) was “cross-resistance”.
